Reference: the supplement of paper PMC13380429

Columns and labels:
Conditions in all cases: 72 h
Caco-2 [1] = test: cell viability relative to DMSO; higher = less toxic
Calu-3 [2] = test: as above
HepG2 [3] = test: as above
U2OS [4] = test: as above
Vero E6 [5] = test: as above
Calu-3 [6] = test: relative viability EC50 (midpoint between 100% and the lowest measured viability); higher = less toxic
HepG2 [7] = test: as above
U2OS [8] = test: as above
Vero E6 [9] = test: as above
Caco-2 [10] = test: drug sensitivity score (DSS) for viability; higher = more toxic; extreme values may be limits of the assay
Calu-3 [11] = test: as above
HepG2 [12] = test: as above
U2OS [13] = test: as above
Vero E6 [14] = test: as above
Caco-2 [15] = test: relative viability EC50 (midpoint between 100% and the lowest measured viability); higher = less toxic

Which cell viability (Caco-2 [1]; 1 nM) does the source give for CC(C)Oc1cccc(-n2c(CCc3c[nH]c4ccc(Br)cc34)nc3ccccc3c2=O)c1 here?
Its cell viability is 94.9%.

What about the cell viability (Caco-2 [1]; 10 nM) of the same compound?
The cell viability was 101%.

And the cell viability (Caco-2 [1]; 100 nM)?
The cell viability was 101%.

And the cell viability (Caco-2 [1]; 1000 nM)?
Its cell viability is 99.1%.

What about the cell viability (Caco-2 [1]; 10000 nM) of the same compound?
Its cell viability is 73.3%.

What about the cell viability (Calu-3 [2]; 1 nM) of the same compound?
Its cell viability is 95.6%.

And the cell viability (Calu-3 [2]; 10 nM)?
The cell viability was 93.9%.

What about the cell viability (Calu-3 [2]; 100 nM) of the same compound?
The cell viability was 92.9%.

What about the cell viability (Calu-3 [2]; 1000 nM) of the same compound?
Its cell viability is 112%.

And the cell viability (Calu-3 [2]; 10000 nM)?
Its cell viability is 108%.

And the cell viability (HepG2 [3]; 1 nM)?
Its cell viability is 119%.

What about the cell viability (HepG2 [3]; 10 nM) of the same compound?
The cell viability was 97.9%.

What about the cell viability (HepG2 [3]; 100 nM) of the same compound?
Its cell viability is 107%.

What about the cell viability (HepG2 [3]; 1000 nM) of the same compound?
The cell viability was 85.9%.

What about the cell viability (HepG2 [3]; 10000 nM) of the same compound?
Its cell viability is 92.3%.

And the cell viability (U2OS [4]; 1 nM)?
Its cell viability is 98.6%.

And the cell viability (U2OS [4]; 10 nM)?
The cell viability was 103%.

And the cell viability (U2OS [4]; 100 nM)?
Its cell viability is 98%.

What about the cell viability (U2OS [4]; 1000 nM) of the same compound?
Its cell viability is 102%.

And the cell viability (U2OS [4]; 10000 nM)?
Its cell viability is 97.8%.

What about the cell viability (Vero E6 [5]; 1 nM) of the same compound?
The cell viability was 102%.

And the cell viability (Vero E6 [5]; 10 nM)?
The cell viability was 101%.

And the cell viability (Vero E6 [5]; 100 nM)?
Its cell viability is 100%.

What about the cell viability (Vero E6 [5]; 1000 nM) of the same compound?
Its cell viability is 99.7%.

And the cell viability (Vero E6 [5]; 10000 nM)?
Its cell viability is 99.3%.

And the “relative viability EC50” value (Calu-3 [6])?
The value was > 10 µM.

What about the “relative viability EC50” value (HepG2 [7]) of the same compound?
The value was > 10 µM.

What about the “relative viability EC50” value (U2OS [8]) of the same compound?
The value was > 10 µM.

And the “relative viability EC50” value (Vero E6 [9])?
Its value is > 10 µM.

What about the drug sensitivity score (Caco-2 [10]) of the same compound?
The drug sensitivity score was 1.2.

And the drug sensitivity score (Calu-3 [11])?
The drug sensitivity score was 0.

What about the drug sensitivity score (HepG2 [12]) of the same compound?
The drug sensitivity score was 1.

What about the drug sensitivity score (U2OS [13]) of the same compound?
Its drug sensitivity score is 0.

And the drug sensitivity score (Vero E6 [14])?
Its drug sensitivity score is 0.

For CC(C)c1ccc(NC(=O)Cn2cnc3c2c(=O)n(C)c(=O)n3C)cc1, which cell viability (Caco-2 [1]; 1 nM) is on record?
The cell viability was 100%.

And the cell viability (Caco-2 [1]; 10 nM)?
The cell viability was 96%.

What about the cell viability (Caco-2 [1]; 100 nM) of the same compound?
Its cell viability is 92.5%.

What about the cell viability (Caco-2 [1]; 1000 nM) of the same compound?
The cell viability was 89.1%.

And the cell viability (Caco-2 [1]; 10000 nM)?
The cell viability was 95.9%.

And the cell viability (Calu-3 [2]; 1 nM)?
Its cell viability is 87%.

And the cell viability (Calu-3 [2]; 10 nM)?
Its cell viability is 81.2%.

And the cell viability (Calu-3 [2]; 100 nM)?
Its cell viability is 92.9%.

What about the cell viability (Calu-3 [2]; 1000 nM) of the same compound?
Its cell viability is 90%.

And the cell viability (Calu-3 [2]; 10000 nM)?
The cell viability was 94.8%.

And the cell viability (HepG2 [3]; 1 nM)?
The cell viability was 97.3%.

And the cell viability (HepG2 [3]; 10 nM)?
Its cell viability is 106%.

What about the cell viability (HepG2 [3]; 100 nM) of the same compound?
Its cell viability is 93.4%.

What about the cell viability (HepG2 [3]; 1000 nM) of the same compound?
Its cell viability is 112%.

And the cell viability (HepG2 [3]; 10000 nM)?
The cell viability was 98.5%.

And the cell viability (U2OS [4]; 1 nM)?
Its cell viability is 99.7%.

What about the cell viability (U2OS [4]; 10 nM) of the same compound?
The cell viability was 97.2%.

And the cell viability (U2OS [4]; 100 nM)?
Its cell viability is 101%.

And the cell viability (U2OS [4]; 1000 nM)?
Its cell viability is 100%.

What about the cell viability (U2OS [4]; 10000 nM) of the same compound?
The cell viability was 98.2%.

What about the cell viability (Vero E6 [5]; 1 nM) of the same compound?
Its cell viability is 91.6%.

And the cell viability (Vero E6 [5]; 10 nM)?
The cell viability was 107%.

And the cell viability (Vero E6 [5]; 100 nM)?
The cell viability was 98.7%.

What about the cell viability (Vero E6 [5]; 1000 nM) of the same compound?
The cell viability was 102%.

What about the cell viability (Vero E6 [5]; 10000 nM) of the same compound?
The cell viability was 101%.

What about the “relative viability EC50” value (Caco-2 [15]) of the same compound?
Its value is > 10 µM.

What about the “relative viability EC50” value (Calu-3 [6]) of the same compound?
The value was > 10 µM.

What about the “relative viability EC50” value (HepG2 [7]) of the same compound?
The value was > 10 µM.

And the “relative viability EC50” value (U2OS [8])?
The value was > 10 µM.

What about the “relative viability EC50” value (Vero E6 [9]) of the same compound?
The value was > 10 µM.

And the drug sensitivity score (Caco-2 [10])?
Its drug sensitivity score is 0.

And the drug sensitivity score (Calu-3 [11])?
The drug sensitivity score was 0.

What about the drug sensitivity score (HepG2 [12]) of the same compound?
Its drug sensitivity score is 0.

What about the drug sensitivity score (U2OS [13]) of the same compound?
Its drug sensitivity score is 0.

What about the drug sensitivity score (Vero E6 [14]) of the same compound?
Its drug sensitivity score is 0.

What does the source list for CCCCc1nn(-c2ccccc2C(F)(F)F)c(=O)n1Cc1ccc(-c2ccccc2S(=O)(=O)NC(=O)c2sccc2C)cc1?
cell viability (Caco-2 [1]; 1 nM): 98.6%; cell viability (Caco-2 [1]; 10 nM): 110%; cell viability (Caco-2 [1]; 100 nM): 102%; cell viability (Caco-2 [1]; 1000 nM): 100%; cell viability (Caco-2 [1]; 10000 nM): 94.1%; cell viability (Calu-3 [2]; 1 nM): 107%; cell viability (Calu-3 [2]; 10 nM): 99.2%; cell viability (Calu-3 [2]; 100 nM): 108%; cell viability (Calu-3 [2]; 1000 nM): 106%; cell viability (Calu-3 [2]; 10000 nM): 109%; cell viability (HepG2 [3]; 1 nM): 98.8%; cell viability (HepG2 [3]; 10 nM): 115%; cell viability (HepG2 [3]; 100 nM): 111%; cell viability (HepG2 [3]; 1000 nM): 108%; cell viability (HepG2 [3]; 10000 nM): 102%; cell viability (Vero E6 [5]; 1 nM): 104%; cell viability (Vero E6 [5]; 10 nM): 106%; cell viability (Vero E6 [5]; 100 nM): 102%; cell viability (Vero E6 [5]; 1000 nM): 96.8%; cell viability (Vero E6 [5]; 10000 nM): 104%; relative viability EC50 (Caco-2 [15]): > 10 µM; relative viability EC50 (Calu-3 [6]): > 10 µM; relative viability EC50 (HepG2 [7]): > 10 µM; relative viability EC50 (Vero E6 [9]): > 10 µM; drug sensitivity score (Caco-2 [10]): 0; drug sensitivity score (Calu-3 [11]): 0; drug sensitivity score (HepG2 [12]): 0; drug sensitivity score (Vero E6 [14]): 0

With CN1CCC(COc2cnc(-c3cccc(Cn4nc(-c5cccc(C#N)c5)ccc4=O)c3)nc2)CC1 as the compound, how does the cell viability (Caco-2 [1]; 1 nM) read?
The cell viability was 96.1%.

And the cell viability (Caco-2 [1]; 10 nM)?
The cell viability was 99.7%.

And the cell viability (Caco-2 [1]; 100 nM)?
Its cell viability is 93.8%.

And the cell viability (Caco-2 [1]; 1000 nM)?
The cell viability was 100%.

And the cell viability (Caco-2 [1]; 10000 nM)?
Its cell viability is 94.9%.

What about the cell viability (Calu-3 [2]; 1 nM) of the same compound?
Its cell viability is 103%.

And the cell viability (Calu-3 [2]; 10 nM)?
Its cell viability is 110%.

And the cell viability (Calu-3 [2]; 100 nM)?
The cell viability was 93.3%.

And the cell viability (Calu-3 [2]; 1000 nM)?
The cell viability was 101%.

And the cell viability (Calu-3 [2]; 10000 nM)?
Its cell viability is 110%.

And the cell viability (HepG2 [3]; 1 nM)?
Its cell viability is 106%.

And the cell viability (HepG2 [3]; 10 nM)?
Its cell viability is 93.4%.

And the cell viability (HepG2 [3]; 100 nM)?
Its cell viability is 106%.

What about the cell viability (HepG2 [3]; 1000 nM) of the same compound?
The cell viability was 95.2%.

What about the cell viability (HepG2 [3]; 10000 nM) of the same compound?
Its cell viability is 99.2%.

What about the cell viability (U2OS [4]; 1 nM) of the same compound?
Its cell viability is 96.3%.

What about the cell viability (U2OS [4]; 10 nM) of the same compound?
Its cell viability is 97.4%.

What about the cell viability (U2OS [4]; 100 nM) of the same compound?
Its cell viability is 106%.

And the cell viability (U2OS [4]; 1000 nM)?
The cell viability was 99%.

What about the cell viability (U2OS [4]; 10000 nM) of the same compound?
The cell viability was 102%.

What about the cell viability (Vero E6 [5]; 1 nM) of the same compound?
Its cell viability is 102%.

And the cell viability (Vero E6 [5]; 10 nM)?
The cell viability was 97.8%.

What about the cell viability (Vero E6 [5]; 100 nM) of the same compound?
The cell viability was 95.7%.

And the cell viability (Vero E6 [5]; 1000 nM)?
The cell viability was 95.9%.

And the cell viability (Vero E6 [5]; 10000 nM)?
Its cell viability is 106%.

And the “relative viability EC50” value (Caco-2 [15])?
The value was > 10 µM.

What about the “relative viability EC50” value (Calu-3 [6]) of the same compound?
The value was > 10 µM.

What about the “relative viability EC50” value (HepG2 [7]) of the same compound?
The value was > 10 µM.

And the “relative viability EC50” value (U2OS [8])?
The value was > 10 µM.

And the “relative viability EC50” value (Vero E6 [9])?
Its value is > 10 µM.

What about the drug sensitivity score (Caco-2 [10]) of the same compound?
Its drug sensitivity score is 0.

What about the drug sensitivity score (Calu-3 [11]) of the same compound?
The drug sensitivity score was 0.

And the drug sensitivity score (HepG2 [12])?
The drug sensitivity score was 0.

What about the drug sensitivity score (U2OS [13]) of the same compound?
The drug sensitivity score was 0.

What about the drug sensitivity score (Vero E6 [14]) of the same compound?
The drug sensitivity score was 0.
